One may read the IC50 as the concentration needed to halve the response being measured.

Assay [1] addresses Small conductance calcium-activated potassium channel (Rattus norvegicus, UniProt P70604+P70606+P70605). The assay is described as follows: The blocking of apamin-sensitive [Ca2+]-activated K+ (SKCa) channel was assessed by the compounds ability to inhibit the after-hyperpolarization in cultured rat superior cervical ganglion neurons. The assay is classed as functional.
Assay [2] deals with Small conductance calcium-activated potassium channel (Rattus norvegicus) (UniProt P70604+P70606+P70605). The assay is described as follows: The ratio of compound concentrations and dequalinium that cause 50% inhibition of the after-hyperpolarization. The assay is classed as functional.

On to `C1=C\c2ccc(cc2)C[n+]2ccc(c3ccccc32)NCc2ccc(cc2)Cc2ccc(cc2)CNc2cc[n+](c3ccccc23)Cc2ccc/1cc2`, for which the IC50 in assay [1] was found to be 250 nM. The EMR in assay [2] stood at 1.1.
Turning to `c1ccc2c(c1)c1cc[n+]2Cc2ccc(cc2)C[n+]2ccc(c3ccccc32)NCc2ccc(cc2)CN1`, the IC50 in assay [1] was determined as 28 nM. The EMR in assay [2] amounted to 0.05.
Turning to `c1ccc2c(c1)c1cc[n+]2Cc2ccc(cc2)Cc2ccc(cc2)C[n+]2ccc(c3ccccc32)NCc2ccc(cc2)-c2ccc(cc2)CN1`, in assay [1], the IC50 came to 280 nM. Besides, the EMR in assay [2] turned out to be 0.8.
In the same order, the values of `Nc1cc[n+](Cc2ccc(-c3ccc(C[n+]4ccc(N)c5ccccc54)cc3)cc2)c2ccccc12` are 380 nM and 0.4.
Consider `c1cc2cc(c1)CNc1cc[n+](c3ccccc13)Cc1cccc(c1)C[n+]1ccc(c3ccccc31)NC2`, for which the half-maximal inhibitory concentration (IC50) in assay [1] worked out at 130 nM. The EMR in assay [2] is 0.22.
The corresponding values for `c1ccc2c(c1)c1cc[n+]2Cc2ccc(cc2)-c2ccc(cc2)C[n+]2ccc(c3ccccc32)NCCCCCCCCCCN1` are 170 nM and 0.26.
With `C1=C\c2ccc(cc2)C[n+]2ccc(c3ccccc32)NCCCCCCCCCCNc2cc[n+](c3ccccc23)Cc2ccc/1cc2`, the IC50 in assay [1] is listed as 150 nM. Besides, the EMR in assay [2] amounted to 0.29.
For `Nc1cc[n+](Cc2cccc(C[n+]3ccc(N)c4ccccc43)c2)c2ccccc12`, the EMR in assay [2] was 1.32.
For `c1cc2cc(c1)CNc1cc[n+](c3ccccc13)Cc1ccc(cc1)C[n+]1ccc(c3ccccc31)NC2`, the IC50 in assay [1] was 70 nM. Moreover, in assay [2], the EMR is 0.18.
The corresponding values for `Nc1cc[n+](Cc2ccc(CCc3ccc(C[n+]4ccc(N)c5ccccc54)cc3)cc2)c2ccccc12` are 410 nM and 0.71.
The corresponding values for `Cc1cc(N)c2ccccc2[n+]1CCCCCCCCCC[n+]1c(C)cc(N)c2ccccc21.[Cl-].[Cl-]` [DEQUALINIUM CHLORIDE] are 650 nM and 1.
Take `c1ccc2c(c1)c1cc[n+]2Cc2ccc(cc2)Cc2ccc(cc2)C[n+]2ccc(c3ccccc32)NCc2ccc(cc2)Cc2ccc(cc2)CN1`: the IC50 in assay [1] is 260 nM. The EMR in assay [2] worked out at 0.31.
For the compound `Nc1cc[n+](Cc2cccc(-c3cccc(C[n+]4ccc(N)c5ccccc54)c3)c2)c2ccccc12`, the IC50 in assay [1] came to 290 nM. Moreover, the EMR in assay [2] came out at 0.55.
In the same order, the values of `c1ccc2c(c1)c1cc[n+]2Cc2ccc(cc2)-c2ccc(cc2)C[n+]2ccc(c3ccccc32)NCc2ccc(cc2)Cc2ccc(cc2)CN1` are 150 nM and 0.26.
Turning to `c1ccc2c(c1)c1cc[n+]2Cc2ccc(cc2)CCc2ccc(cc2)C[n+]2ccc(c3ccccc32)NCCCCCCCCCCN1`, the IC50 in assay [1] was determined as 180 nM. Besides, the EMR in assay [2] is 0.57.
The corresponding values for `Nc1cc[n+](Cc2ccc(/C=C\c3ccc(C[n+]4ccc(N)c5ccccc54)cc3)cc2)c2ccccc12` are 190 nM and 0.24.
For `c1ccc2c(c1)c1cc[n+]2CCCCCCCCCC[n+]2ccc(c3ccccc32)NCc2ccc(cc2)-c2ccc(cc2)CN1`, the concentration for half-maximal inhibition (IC50) in assay [1] came to 210 nM. Besides, the EMR in assay [2] was determined as 0.25.
`c1cc2cc(c1)C[n+]1ccc(c3ccccc31)NCc1ccc(cc1)CNc1cc[n+](c3ccccc13)C2`: in assay [1], the IC50 is 3 nM. The EMR in assay [2] turned out to be 0.01.
The corresponding values for `Oc1c2cccc1C[n+]1ccc(c3ccccc31)NCc1ccc(cc1)CNc1cc[n+](c3ccccc13)C2` are 60 nM and 0.14.
The corresponding values for `c1ccc2c(c1)c1cc[n+]2Cc2ccc(cc2)-c2ccc(cc2)C[n+]2ccc(c3ccccc32)NCc2ccc(cc2)-c2ccc(cc2)CN1` are 430 nM and 0.89.
In the same order, the values of `Nc1cc[n+](Cc2ccc(-c3cccc(-c4ccc(C[n+]5ccc(N)c6ccccc65)cc4)n3)cc2)c2ccccc12` are 360 nM and 0.59.
Regarding `c1cc2cc(c1)-c1cccc(c1)C[n+]1ccc(c3ccccc31)NCCCCCCCCCCNc1cc[n+](c3ccccc13)C2`, the IC50 in assay [1] came to 110 nM. For the same compound, in assay [2], the EMR is 0.28.
With `Nc1cc[n+](Cc2ccc3c(c2)Cc2cc(C[n+]4ccc(N)c5ccccc54)ccc2-3)c2ccccc12`, in assay [1], the IC50 turned out to be 310 nM. The EMR in assay [2] was determined as 0.33.
For the compound `Nc1cc[n+](Cc2ccc(Cc3ccc(C[n+]4ccc(N)c5ccccc54)cc3)cc2)c2ccccc12`, the IC50 in assay [1] was 450 nM. Moreover, the EMR in assay [2] was 0.39.
The corresponding values for `c1ccc2c(c1)c1cc[n+]2Cc2ccc(cc2)Cc2ccc(cc2)C[n+]2ccc(c3ccccc32)NCCCCCCCCCCN1` [UCL-1530] are 80 nM and 0.16.
For `c1cc2nc(c1)-c1ccc(cc1)C[n+]1ccc(c3ccccc31)NCc1ccc(cc1)Cc1ccc(cc1)CNc1cc[n+](c3ccccc13)Cc1ccc-2cc1`, the IC50 in assay [1] stood at 380 nM. In assay [2], the EMR was found to be 0.88.
Turning to `c1ccc2c(c1)c1cc[n+]2Cc2ccc3c(c2)Cc2cc(ccc2-3)C[n+]2ccc(c3ccccc32)NCCCCCCCCCCN1`, the IC50 in assay [1] is recorded as 90 nM. Moreover, the EMR in assay [2] worked out at 0.11.
The corresponding values for `Nc1cc[n+](Cc2ccc(C[n+]3ccc(N)c4ccccc43)cc2)c2ccccc12` are 2800 nM and 3.7.
In the case of `Oc1c2cc(I)cc1C[n+]1ccc(c3ccccc31)NCc1ccc(cc1)CNc1cc[n+](c3ccccc13)C2`, the IC50 in assay [1] is recorded as 100 nM. In addition, the EMR in assay [2] is 0.16.
The corresponding values for `c1ccc2c(c1)c1cc[n+]2Cc2ccc3c(c2)Cc2cc(ccc2-3)C[n+]2ccc(c3ccccc32)NCc2ccc(cc2)-c2ccc(cc2)CN1` are 120 nM and 0.15.
As to `COc1c2cccc1C[n+]1ccc(c3ccccc31)NCc1ccc(cc1)CNc1cc[n+](c3ccccc13)C2`, the IC50 in assay [1] worked out at 25 nM. In addition, in assay [2], the EMR was 0.019.
